Laboratory results as given in ChEMBL document CHEMBL5137047, “Design, synthesis and anti-inflammatory evaluation of aloe-emodin derivatives as potential modulators of Akt, NF-κB and JNK signaling pathways” (Eur J Med Chem, 2022).
The source made the active and inactive calls. No cut-off for these calls is given here.

Assays:
RAW264.7 [1] = assay: Antiinflammatory activity against mouse RAW264.7 cells assessed as inhibition of LPS-induced nitric oxide production at 5 uM measured after 24 hrs; format: functional, cell-based
RAW264.7 [2] = assay: Inhibition of IL-1beta mRNA expression in LPS-stimulated mouse RAW264.7 cells measured after 24 hrs by qRT-PCR analysis; format: functional, cell-based; details: dose 3.125-12.5 µM, DDE = dose-dependent effect
RAW264.7 [3] = assay: Antiinflammatory activity against mouse RAW264.7 cells assessed as inhibition of LPS-induced nitric oxide production measured after 24 hrs; format: functional, cell-based; details: RAW264.7, 24 h
RAW264.7 [4] = assay: Inhibition of IL-6 mRNA expression in LPS-stimulated mouse RAW264.7 cells measured after 24 hrs by qRT-PCR analysis; format: functional, cell-based; details: dose 3.125-12.5 µM, DDE = dose-dependent effect
RAW264.7 [5] = assay: Inhibition of PGE2 production in LPS-stimulated mouse RAW264.7 cells measured after 24 hrs by ELISA; format: functional, cell-based; details: dose 3.125-12.5 µM, DDE = dose-dependent effect
RAW264.7 [6] = assay: Inhibition of IL-6 production in LPS-stimulated mouse RAW264.7 cells measured after 24 hrs by ELISA; format: functional, cell-based; details: dose 3.125-12.5 µM, DDE = dose-dependent effect
RAW264.7 [7] = assay: Inhibition of LPS-induced NF-kappaB activation in mouse RAW264.7 cells assessed as upregulation of IkappaBalpha protein expression at 3.125 to 12.5 uM preincubated for 24 hrs followed by LPS addition and measured after 30 mins by Western blot analysis; format: cell-based; details: dose 3.125-12.5 µM, time 24.5 hrs
RAW264.7 [8] = assay: Cytotoxicity against mouse RAW264.7 cells assessed as reduction in cell viability at upto 25 uM measured after 24 hrs by MTT assay; format: toxicity, cell-based; details: raw264.7, 24 h
RAW264.7 [9] = assay: Inhibition of LPS-induced NF-kappaB activation in mouse RAW264.7 cells assessed as reduction in translocation of p65 from cytoplasm to nucleus at 3.125 to 12.5 uM preincubated for 24 hrs followed by LPS addition and measured after 30 mins by immunofluorescence analysis; format: cell-based; details: dose 3.125-12.5 µM
RAW264.7 [10] = assay: Inhibition of Akt phosphorylation in LPS-stimulated mouse RAW264.7 cells at 3.125 to 12.5 uM measured after 24 hrs by Western blot analysis; format: cell-based; details: dose 3.125-12.5 µM
RAW264.7 [11] = assay: Downregulation of iNOS protein expression in LPS-stimulated mouse RAW264.7 cells measured after 24 hrs by Western blot analysis; format: functional, cell-based; details: dose 3.125-12.5 µM
RAW264.7 [12] = assay: Inhibition of LPS-induced NF-kappaB activation in mouse RAW264.7 cells assessed as reduction in p65 expression in nucleus at 3.125 to 12.5 uM preincubated for 24 hrs followed by LPS addition and measured after 30 mins by Western blot analysis; format: cell-based; details: dose 3.125-12.5 µM
RAW264.7 [13] = assay: Inhibition of COX-2 mRNA expression in LPS-stimulated mouse RAW264.7 cells measured after 24 hrs by qRT-PCR analysis; format: functional, cell-based; details: dose 3.125-12.5 µM, DDE = dose-dependent effect
RAW264.7 [14] = assay: Inhibition of TNF-alpha production in LPS-stimulated mouse RAW264.7 cells measured after 24 hrs by ELISA; format: functional, cell-based; details: dose 3.125-12.5 µM, DDE = dose-dependent effect
RAW264.7 [15] = assay: Inhibition of IL-1beta production in LPS-stimulated mouse RAW264.7 cells measured after 24 hrs by ELISA; format: functional, cell-based; details: dose 3.125-12.5 µM, DDE = dose-dependent effect
RAW264.7 [16] = assay: Downregulation of COX-2 protein expression in LPS-stimulated mouse RAW264.7 cells measured after 24 hrs by Western blot analysis; format: functional, cell-based; details: dose 3.125-12.5 µM
[17] = molecular target: c-Jun N-terminal kinase (Mus musculus) (UniProt Q91Y86+Q9WTU6+Q61831); assay: Inhibition of JNK phosphorylation in LPS-induced mouse RAW264.7 cells measured after 24 hrs by Western blot analysis; format: cell-based; details: dose 3.125-12.5 µM, DDE = dose-dependent effect
c-Jun N-terminal kinase (Mus musculus), sequence (Q61831 whole entry, looked up): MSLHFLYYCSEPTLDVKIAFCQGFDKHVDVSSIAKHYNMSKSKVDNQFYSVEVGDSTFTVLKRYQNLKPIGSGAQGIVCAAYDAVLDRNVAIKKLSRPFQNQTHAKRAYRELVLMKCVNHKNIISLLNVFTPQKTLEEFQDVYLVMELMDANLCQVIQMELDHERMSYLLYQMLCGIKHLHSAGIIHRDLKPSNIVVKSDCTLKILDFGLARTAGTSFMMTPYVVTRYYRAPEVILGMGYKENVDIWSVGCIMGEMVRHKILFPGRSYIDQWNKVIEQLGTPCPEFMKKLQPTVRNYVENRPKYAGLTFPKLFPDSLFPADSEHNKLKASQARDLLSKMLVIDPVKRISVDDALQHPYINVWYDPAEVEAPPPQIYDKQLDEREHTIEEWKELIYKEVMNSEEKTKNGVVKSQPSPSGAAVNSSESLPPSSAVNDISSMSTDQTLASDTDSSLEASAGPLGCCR
c-Jun N-terminal kinase (Mus musculus), sequence (Q91Y86 whole entry, looked up): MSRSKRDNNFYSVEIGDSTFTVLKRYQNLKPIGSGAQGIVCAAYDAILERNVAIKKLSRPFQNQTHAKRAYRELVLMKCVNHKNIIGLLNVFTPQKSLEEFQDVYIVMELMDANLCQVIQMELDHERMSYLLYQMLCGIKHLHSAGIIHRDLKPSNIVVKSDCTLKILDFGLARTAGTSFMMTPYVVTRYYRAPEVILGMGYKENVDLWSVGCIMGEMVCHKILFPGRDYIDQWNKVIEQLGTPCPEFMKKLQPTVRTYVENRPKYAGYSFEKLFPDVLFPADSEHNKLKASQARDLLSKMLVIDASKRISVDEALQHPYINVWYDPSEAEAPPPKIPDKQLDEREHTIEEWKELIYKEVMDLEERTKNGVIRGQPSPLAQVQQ
c-Jun N-terminal kinase (Mus musculus), sequence (Q9WTU6 whole entry, looked up): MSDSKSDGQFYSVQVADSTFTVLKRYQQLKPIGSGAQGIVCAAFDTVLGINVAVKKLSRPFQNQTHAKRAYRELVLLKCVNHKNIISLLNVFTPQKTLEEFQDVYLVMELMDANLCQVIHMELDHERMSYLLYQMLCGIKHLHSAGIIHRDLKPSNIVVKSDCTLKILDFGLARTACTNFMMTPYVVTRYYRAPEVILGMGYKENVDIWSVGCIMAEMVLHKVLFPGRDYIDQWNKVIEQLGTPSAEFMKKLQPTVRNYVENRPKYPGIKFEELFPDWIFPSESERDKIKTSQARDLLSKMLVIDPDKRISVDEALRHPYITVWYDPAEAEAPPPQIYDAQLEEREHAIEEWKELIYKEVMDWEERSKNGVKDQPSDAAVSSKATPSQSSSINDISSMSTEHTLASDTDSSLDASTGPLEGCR

SMILES | NO production inhibition (active/inactive call) (RAW264.7 [1]) | also measured
O=C(CN1CCOCC1)OCc1cc(OC(=O)c2ccccc2)c2c(c1)C(=O)c1cccc(OC(=O)c3ccccc3)c1C2=O | Active | 
O=C(CN1CCN(c2ccccc2)CC1)OCc1cc(O)c2c(c1)C(=O)c1cccc(O)c1C2=O | Active | 
CC(=O)Oc1cccc2c1C(=O)c1c(OC(C)=O)cc(COC(=O)CN3CCCCC3)cc1C2=O | Active | 
CCN(CC)CC(=O)OCc1cc(O)c2c(c1)C(=O)c1cccc(O)c1C2=O | Active | 
CC(=O)Oc1cccc2c1C(=O)c1c(OC(C)=O)cc(COC(=O)CN3CCOCC3)cc1C2=O | Active | 
CC(=O)Oc1cccc2c1C(=O)c1c(OC(C)=O)cc(COC(=O)CN3CCN(c4ccc(F)cc4)CC3)cc1C2=O | Active | 
CC(=O)Oc1cccc2c1C(=O)c1c(OC(C)=O)cc(COC(=O)CN3CCSCC3)cc1C2=O | Active | 
CN1CCN(CC(=O)OCc2cc(O)c3c(c2)C(=O)c2cccc(O)c2C3=O)CC1 |  | inhibition (RAW264.7 [2]): Dde; IC50 (RAW264.7 [3]): 3.15 µM; inhibition (RAW264.7 [4]): Dde; inhibition (RAW264.7 [5]): Dde; inhibition (RAW264.7 [6]): Dde; inhibition (RAW264.7 [7]): Active; Activity (RAW264.7 [8]): Non-Toxic; inhibition (RAW264.7 [9]): Active; inhibition (RAW264.7 [10]): Active; Activity (RAW264.7 [11]): Active; inhibition (RAW264.7 [12]): Active; inhibition (RAW264.7 [13]): Dde; inhibition (RAW264.7 [14]): Dde; inhibition (RAW264.7 [15]): Dde; Activity (RAW264.7 [16]): Active; inhibition [17]: Dde
CC(=O)Oc1cccc2c1C(=O)c1c(OC(C)=O)cc(COC(=O)CN3CCC(OC(C)=O)CC3)cc1C2=O | Active | 
CC(=O)Oc1cccc2c1C(=O)c1c(OC(C)=O)cc(COC(=O)CN3CCN(c4ccccc4)CC3)cc1C2=O | Active | 
O=C(CN1CCC(O)CC1)OCc1cc(O)c2c(c1)C(=O)c1cccc(O)c1C2=O | Active | 
O=C(CN1CCSCC1)OCc1cc(O)c2c(c1)C(=O)c1cccc(O)c1C2=O | Active | 
O=C(CN1CCCCC1)OCc1cc(O)c2c(c1)C(=O)c1cccc(O)c1C2=O | Active | 
O=C(CN1CCOCC1)OCc1cc(O)c2c(c1)C(=O)c1cccc(O)c1C2=O | Active | 
O=C(CN1CCCC1)OCc1cc(O)c2c(c1)C(=O)c1cccc(O)c1C2=O | Active | 
CCCN(C)CC(=O)OCc1cc(O)c2c(c1)C(=O)c1cccc(O)c1C2=O | Active | 
O=C(CN1CCN(c2ccc(F)cc2)CC1)OCc1cc(O)c2c(c1)C(=O)c1cccc(O)c1C2=O | Active | 
CC(C)N(C)CC(=O)OCc1cc(O)c2c(c1)C(=O)c1cccc(O)c1C2=O | Active | 
CC(C)C(=O)Oc1cccc2c1C(=O)c1c(OC(=O)C(C)C)cc(COC(=O)CN3CCOCC3)cc1C2=O | Active | 
